± gives the expanded uncertainty stated by the source.
Key:
[1] = Molar enthalpy of transition or fusion; settings: Crystal; DSC
[2] = Solid-liquid equilibrium temperature; settings: Crystal, visual observation
[3] = Crystal

SMILES | Molar enthalpy of transition or fusion [1] | Solid-liquid equilibrium temperature ([2]; 100 kPa) | Solid-liquid equilibrium temperature ([2]; 20000 kPa) | Solid-liquid equilibrium temperature ([2]; 40000 kPa) | Solid-liquid equilibrium temperature ([2]; 60000 kPa) | Solid-liquid equilibrium temperature ([2]; 80000 kPa) | Normal melting temperature ([3]; DTA) | Normal melting temperature ([3]; visual observation)
CCCCCCCCCCCCCC(=O)OCC [ethyl tetradecanoate] | 47.3 ± 1.4 kJ/mol | 285.8 ± 0.4 K | 289.9 ± 0.5 K | 294.1 ± 0.5 K | 298 ± 0.5 K | 301.9 ± 0.5 K | 13.2 ± 0.5 °C | 12.7 ± 0.5 °C
CCCCCCCCCCCC(=O)OCC [ethyl dodecanoate] | 38.4 ± 1.3 kJ/mol | 272.3 ± 0.4 K | 276.4 ± 0.5 K | 280.3 ± 0.5 K | 284 ± 0.5 K | 287.4 ± 0.5 K | -0.9 ± 0.5 °C | -0.8 ± 0.5 °C
CCCCCCCCCCCCCCCC(=O)OCC [ethyl hexadecanoate] | 55.6 ± 1.5 kJ/mol | 297.6 ± 0.4 K | 302 ± 0.5 K | 306.4 ± 0.5 K | 310.3 ± 0.5 K | 314.3 ± 0.5 K | 24.2 ± 0.5 °C | 24.5 ± 0.5 °C

Reference: the NIST ThermoML archive (doi:10.1016/j.fluid.2014.09.007)
